Each structure is given as a SMILES string. Where two headings read alike, the source gives them in different places.

The subject of data set [1] is Hepatocyte spheroids. Put plainly: Hepatocyte spheroid (monoculture, no nonparenchymal cells) cytotoxicity, cellular ATP. It is filed as cell-based, human. The method, then: (§1) Toxicology of TAK-994 was assessed using lnSphero’s 3D lnSight Human Liver models, based on N-acetyl-L-cysteine causality assay, glutathione depletion assay, and lipopolysaccharide (LPS)-sensitization assay. Hepatotoxicity was assessed in 7- and 14-day mono and co-culture models, in which cells were exposed to TAK-994 (0.1, 0.3, 1, 3.16, 10, 31.6, or 100 μM) […].
The test system was Human 3D InSight Liver Models, production ID hLiMT_589, cryopreserved primary human hepatocytes (Lot IPDH_18; single donor) in monoculture or in co-culture with cryopreserved primary human nonparenchymal cells (Lot IPHN_17; single donor). Human liver microtissues are composed of roughly 1000 hepatocytes and 1000 non-parenchymal live cells. Non-parenchymal liver cell fractions are expected to be composed of Kupffer cells and liver endothelial cells however, these were not identified.
Mono and co-culture model cells were exposed to TAK-994 (0.1, 0.3, 1, 3.16, 10, 31.6, or 100 μM in 0.5% DMSO) for 7 days (TAK-994 administered on Days 0 and 4) or 14 days (TAK-994 administered on Days 0, 5, and 9). Six replicates were tested for each condition. The vehicle control was 0.5% DMSO, and the positive control was chlorpromazine (0.1, 0.3, 1, 3.16, 10, 31.6, or 100 μM in DMSO). Cellular ATP content was measured in the cell lysate on Days 7 or 14 of treatment. LDH release was measured in the cell supernatant on Days 4 and 7 or on Days 5, 9, and 14 and normalized to lysed controls.
(§2) Intracellular ATP content in model lysates was measured with the CellTiter-Glo® 2.0 Cell Viability Assay (Catalogue No. G9243, Promega). The Bioluminescent LDH Release Toxicity Assay Kit (Catalogue No. J2380, Promega) was used to assess extracellular LDH release and normalized to lysed controls. ATP, LDH, GSH, and triglycerides were measured according to internal technical operating procedures.

For data set [2], the target named is human BSEP (Homo sapiens, UniProt O95342). Put plainly: BSEP inhibition, [3H]TCA uptake into membrane vesicles. To be noted: [3H]TCA transport. It is filed as biochemical. The method, then:
Covalent binding of TAK-994 was assessed by incubating [^14C]TAK-994 with human hepatocytes. The CVB level was determined by relating the total amount of radioactivity (pmol equivalent) to the protein concentration in each sample. Assessment of TAK-994 inhibition potential for the bile salt efflux pump (BSEP) was assessed by incubating [^3H(G)]taurocholic acid with TAK-994 (0 to 100 μM/l) or cyclosporin A after addition of 10 μl of membrane vesicles expressing BSEP or control membrane vesicles. Scintillation counts were assessed in two 5-min cycles.
Membrane vesicles prepared from baculovirus-infected insect cells, expressing human BSEP or controls (Lot Nos. ISAOG29 and IKING23, respectively), were purchased from GenoMembrane Co., Ltd.
The [^3H]TCA reaction mixture (n=42) containing TAK-994 (including 0–100 μM/L TAK-994) or cyclosporin A was pre-incubated at 37°C for 5 minutes. The transport reaction was initiated by addition of 10 μL of membrane vesicles expressing BSEP or control membrane vesicles (0.05 mg protein) to the [^3H]TCA reaction mixture (final [^3H]TCA concentration of 2 μM/L). […] The glass fiber filter was measured for radioactivity using an LSC. […]
The count rates in cpm were corrected to dpm, with the background and counting efficiency assessed using the external standard method described by the manufacturer. […]

Data set [3] is described as follows: Plasma exposure in NT1 patients. It is filed as in vivo, human.
Data set [4] relates to human liver microtissues. Briefly: Glutathione depletion (BSO) assay in liver microtissues. To be noted: for IC50: cellular ATP, 14 days. It is filed as cell-based. The protocol:
as §1
Co-culture model cells were pretreated with BSO (150 μM in DMSO) and then exposed to TAK-994 (0.1, 0.3, 1, 3.16, 10, 31.6, or 100 μM in 0.5% DMSO) in the presence and absence of BSO for 14 days (during the treatment period, TAK-994 with or without BSO was administered on Days 0, 5, and 9). Six replicates were tested for each condition. The vehicle control was 0.5% DMSO and the positive control was acetaminophen (0.6, 1.25, 2.5, or 5 mM in Medium TOX). Cellular ATP content was measured in the cell lysate on Day 14 of treatment. LDH release was measured on Days 5, 9, and 14 in the cell supernatant. For cells administered BSO alone, cellular ATP content was also measured on Day 3 and LDH release was also determined between Days 0 to 3. LDH measurements were normalized to lysed controls. Cellular GSH content was measured by GSH-Glo™ Glutathione Assay (Promega) on Days 0, 3, and 14 in the positive control group.
as §2

For data set [5], the system named is patients with narcolepsy. Set-up: method as in Dauvilliers et al. 2023. To be noted: 30, 90 or 180 mg twice daily, 8 wk; ref Dauvilliers et al. 2023; cited from earlier work.

Chain of human BSEP (O95342 whole entry): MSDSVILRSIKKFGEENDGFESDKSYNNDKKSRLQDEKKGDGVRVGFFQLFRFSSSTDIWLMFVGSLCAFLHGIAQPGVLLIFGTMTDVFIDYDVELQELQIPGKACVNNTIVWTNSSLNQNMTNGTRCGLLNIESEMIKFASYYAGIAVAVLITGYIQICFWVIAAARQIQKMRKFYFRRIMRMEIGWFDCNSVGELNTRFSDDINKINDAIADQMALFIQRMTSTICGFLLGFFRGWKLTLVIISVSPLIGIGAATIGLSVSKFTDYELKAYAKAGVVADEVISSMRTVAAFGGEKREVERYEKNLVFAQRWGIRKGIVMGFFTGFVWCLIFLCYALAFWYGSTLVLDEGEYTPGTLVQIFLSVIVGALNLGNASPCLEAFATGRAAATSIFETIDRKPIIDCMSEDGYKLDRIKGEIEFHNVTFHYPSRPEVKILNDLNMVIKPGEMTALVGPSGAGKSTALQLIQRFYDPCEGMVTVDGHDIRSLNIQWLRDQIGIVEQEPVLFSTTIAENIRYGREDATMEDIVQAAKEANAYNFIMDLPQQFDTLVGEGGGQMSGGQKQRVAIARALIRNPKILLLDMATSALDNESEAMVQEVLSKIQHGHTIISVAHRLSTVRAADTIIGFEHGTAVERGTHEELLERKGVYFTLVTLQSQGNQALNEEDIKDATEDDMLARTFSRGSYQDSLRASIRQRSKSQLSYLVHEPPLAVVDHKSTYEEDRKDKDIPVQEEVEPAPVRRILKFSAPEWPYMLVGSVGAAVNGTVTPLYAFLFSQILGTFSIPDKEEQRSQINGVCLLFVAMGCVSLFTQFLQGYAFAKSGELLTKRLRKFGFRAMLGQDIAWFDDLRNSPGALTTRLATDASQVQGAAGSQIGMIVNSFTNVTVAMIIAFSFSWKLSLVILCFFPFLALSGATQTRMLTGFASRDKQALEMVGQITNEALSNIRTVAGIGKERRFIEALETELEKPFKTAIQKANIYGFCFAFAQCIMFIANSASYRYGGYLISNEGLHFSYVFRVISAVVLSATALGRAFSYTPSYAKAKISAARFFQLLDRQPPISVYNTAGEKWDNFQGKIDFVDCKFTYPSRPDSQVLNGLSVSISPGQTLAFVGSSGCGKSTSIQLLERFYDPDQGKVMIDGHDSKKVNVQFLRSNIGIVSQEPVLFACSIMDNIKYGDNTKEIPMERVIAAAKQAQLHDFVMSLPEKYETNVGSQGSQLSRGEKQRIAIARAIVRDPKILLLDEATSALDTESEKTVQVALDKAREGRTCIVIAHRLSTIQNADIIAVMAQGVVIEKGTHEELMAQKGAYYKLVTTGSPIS

Take `CC(C)(O)C(=O)N1CC[C@H](NS(C)(=O)=O)[C@@H]1Cc1cccc(-c2cc(F)cc(F)c2)c1F.CC(C)(O)C(=O)N1CC[C@H](NS(C)(=O)=O)[C@@H]1Cc1cccc(-c2cc(F)cc(F)c2)c1F.O.O.O` [TAK-994]: in data set [1] (100 µM TAK-994, absence of nonparenchymal cells), the “loss of cellular ATP” value was about 50%. For the same compound, the half-inhibitory concentration (IC50) was over 100 µM in data set [1] (cellular ATP, read-out: IC50, hepatocyte spheroids (Fig. 2B)); 34.1 µM in data set [2]; over 100 µM in data set [4] (glutathione depleted, read-out: IC50, liver microtissues + BSO (Fig. 4A)); over 100 µM in data set [4] (read-out: IC50, liver microtissues without BSO (Fig. 4A)). Moreover, the results for the “AUC24, ss in NT1 patients” value in data set [3] (30 mg BID), in data set [3] (90 mg BID) and in data set [3] (180 mg BID) were 2,920 h*nM, 8,870 h*nM and 14,800 h*nM, respectively. Further, the highest concentration (Cmax) turned out to be 408 nM in data set [3] (30 mg BID), 948 nM in data set [3] (90 mg BID) and 1640 nM in data set [3] (180 mg BID). Also, in data set [4], the “sensitization of liver microtissues by buthionine sulfoximine depletion” value was “no such sensitivity was observed”. The “mean wakefulness time in people with narcolepsy” value in data set [5] was “effectively increased mean wakefulness time”.
